Experimental data from patent publication US4774232A, “Bile-substituting method of treatment for the promotion of fat digestion” (Chinoin Gyogyszer Es Vegyeszeti Termak Ek Gyara Rt, priority 1985, dated 1988).

Key:
bile-deficient rats [1] = test: Absorption of 3H-stearic acid with oral DIMEB in bile-deficient rats (Example 10); format: in vivo; details: for Radioactivity in 10 ml of blood: 14.7 mg 3H-stearic acid + 50 mg DIMEB oral
Method: The substitution of the bile by DIMEB in bile-deficiency was studied in rats after ligating the bile duct.
After being starved for 24 hours, the animals were subjected to the bile duct-ligation under nembutal anaesthesia. The absorption was investigated in the 48th hour after starving the animals overnight. The animals were also starved in the course of the examination; but received water ad libitum. One group (3 animals) received 12.8 mg of ^3 H-stearic acid (specific radioactivity: 171.12 kBq/mg), whereas the other group (3 animals) was administered 14.7 mg of ^3 H-stearic acid and 50 mg of DIMEB in 2 ml of distilled water. The substances were suspended in the distilled water ultrasonically. Thereafter, the radioactivity level of the blood was measured at various intervals, by using the liquid scintillation method (Table XI).

lipase = test: In vitro enzymatic hydrolysis of triglycerides: glycerol trioleate, lipase; format: biochemical; details: 37° C.
Method: In an aqueous medium, lipase is capable to split triglycerides only at an extraordinarily low rate. Therefore, an organic solvent should be added to the system, by which the solubility of the triglycerides is increased, but the enzyme activity is diminished. Alternatively, some type of detergent, suitably bile has to be used. The effect of bile was compared to that of DIMEB at 37° C. in such a way that, the quantity of the formed free fatty acids in the samples taken from the reaction mixture at various intervals was titrated by using sodium hydroxide solution. The composition of the reaction mixture was as follows:
a total volume of 1.5 ml contained 4 μmoles of the substrate (triolein or olive oil), 10 mg of bovine serum albumin, 75 μmoles of sodium chloride, 50 μmoles of a phosphate buffer solution (pH 7.4) and 0.25 ml of an enzyme solution. A lipase of the Serva Company (in an 1 mg/10 ml solution) or a pancreas powder (0.5 g was suspended in 10 ml of distilled water and the slightly opalescent solution obtained after filtration was used) were employed as enzyme preparations.
The composition of the solutions to be tested were as follows:
0.5 ml of buffer+10 mg of serum albumin+3.54 mg of substrate+0.25 ml of enzyme solution plus
(a) 0.25 ml of diluted bile+0.50 ml of distilled water; or
(b) 50 mg of dimethyl-β-cyclodextrin dissolved in 0.75 ml of water; or […]

intact rats = test: Lipid absorption in intact rats after oral vegetable oil with DIMEB; format: in vivo; details: for Plasma triglyceride concentration / Free fatty acid concentration in the plasma: normal rats; for Plasma triglyceride concentration: 2 ml vegetable oil + 50 mg DIMEB oral; for Free fatty acid concentration in the plasma: 2 ml vegetable oil + DIMEB oral
Method: The effect of DIMEB on the absorption of a vegetable oil was investigated in intact rats. The aim of this experiment was to elucidate whether the emulsification and intestinal absorption of the vegetable oil were stimulated by DIMEB in addition to the physiological bile functions. […] Thereafter, the triglyceride and free fatty acid concentration of the blood plasma were examined at various intervals. (Tables II and III). The triglyceride concentration of the plasma was determined by using the method of E. Van Handel [Clin. […] G. Dumcombe [Biochem.

mice = test: Toxicity on mice; format: in vivo; details: doses up to 3000 mg/kg of body-weight
bile-deficient rats [2] = test: Substitution of the bile in rats: 5-day fat treatment, faecal, plasma and liver lipids; format: in vivo, rats (Etymis rattus var. albino)
Method: In an other series of experiments, the total lipid content of the faeces discharged by bile-deficient rats was studied.
The oral treatment was started with the daily administration of 1 ml of swine fat or 1 ml of swine fat together with 150 mg of DIMEB, respectively, in the 72nd hour following the ligature. The treatment was continued for 5 days. The faeces was collected in the first 4 days of the treatment. In the 4th hour following the treatment on the 5th day, the experimental animals were decapitated and their samples were worked up. […] An extraordinarily high amount of lipids were eliminated with the faeces of the animals fed with fat. […] Nearly 100 percent of the introduced fat was absorbed under the effect of DIMEB.
A significant deviation was observed between the groups treated with fat or with fat together with DIMEB, respectively. […] The triglyceride concentration was restored in this group to the control value by the treatment with fat. A significant increase in the triglyceride concentration was induced by the treatment with fat together with DIMEB in comparison to the former group.

[3] = bile acid-deficient rats, daily 1 ml fat + 150 mg DIMEB, treatment lasting 5 days

SMILES: COC[C@H]1O[C@@H]2O[C@H]3[C@H](O)[C@@H](OC)[C@@H](O[C@H]4[C@H](O)[C@@H](OC)[C@@H](O[C@H]5[C@H](O)[C@@H](OC)[C@@H](O[C@H]6[C@H](O)[C@@H](OC)[C@@H](O[C@H]7[C@H](O)[C@@H](OC)[C@@H](O[C@H]8[C@H](O)[C@@H](OC)[C@@H](O[C@H]1[C@H](O)[C@H]2OC)O[C@@H]8COC)O[C@@H]7COC)O[C@@H]6COC)O[C@@H]5COC)O[C@@H]4COC)O[C@@H]3COC [DIMEB, heptakis(2,6-di-O-methyl)-β-cyclodextrin]
- Radioactivity in 10 ml of blood (bile-deficient rats [1]; 1 h, animal 4): 0.86 percentage
- Radioactivity in 10 ml of blood (bile-deficient rats [1]; 1 h, animal 5): 3.45 percentage
- Radioactivity in 10 ml of blood (bile-deficient rats [1]; 1 h, animal 6): 1.61 percentage
- Radioactivity in 10 ml of blood (bile-deficient rats [1]; 1 h, mean): 1.97 percentage
- Radioactivity in 10 ml of blood (bile-deficient rats [1]; 2 h, animal 4): 1.05 percentage
- Radioactivity in 10 ml of blood (bile-deficient rats [1]; 2 h, animal 5): 3.25 percentage
- Radioactivity in 10 ml of blood (bile-deficient rats [1]; 2 h, animal 6): 2.56 percentage
- Radioactivity in 10 ml of blood (bile-deficient rats [1]; 2 h, mean): 2.29 percentage
- Radioactivity in 10 ml of blood (bile-deficient rats [1]; 3 h, animal 4): 1.14 percentage
- Radioactivity in 10 ml of blood (bile-deficient rats [1]; 3 h, animal 5): 3.22 percentage
- Radioactivity in 10 ml of blood (bile-deficient rats [1]; 3 h, animal 6): 2.39 percentage
- Radioactivity in 10 ml of blood (bile-deficient rats [1]; 3 h, mean): 2.25 percentage
- Radioactivity in 10 ml of blood (bile-deficient rats [1]; 4 h, animal 4): 1.19 percentage
- Radioactivity in 10 ml of blood (bile-deficient rats [1]; 4 h, animal 5): 3.06 percentage
- Radioactivity in 10 ml of blood (bile-deficient rats [1]; 4 h, animal 6): 2.28 percentage
- Radioactivity in 10 ml of blood (bile-deficient rats [1]; 4 h, mean): 2.18 percentage
- Radioactivity in 10 ml of blood (bile-deficient rats [1]; 5 h, animal 4): 1.24 percentage
- Radioactivity in 10 ml of blood (bile-deficient rats [1]; 5 h, animal 5): 3.08 percentage
- Radioactivity in 10 ml of blood (bile-deficient rats [1]; 5 h, animal 6): 2.27 percentage
- Radioactivity in 10 ml of blood (bile-deficient rats [1]; 5 h, mean): 2.20 percentage
- Radioactivity in 10 ml of blood (bile-deficient rats [1]; 6 h, animal 4): 1.25 percentage
- Radioactivity in 10 ml of blood (bile-deficient rats [1]; 6 h, animal 5): 2.91 percentage
- Radioactivity in 10 ml of blood (bile-deficient rats [1]; 6 h, animal 6): 2.56 percentage
- Radioactivity in 10 ml of blood (bile-deficient rats [1]; 6 h, mean): 2.24 percentage
- Radioactivity in 10 ml of blood (bile-deficient rats [1]; 7 h, animal 4): 1.33 percentage
- Radioactivity in 10 ml of blood (bile-deficient rats [1]; 7 h, animal 5): 3.03 percentage
- Radioactivity in 10 ml of blood (bile-deficient rats [1]; 7 h, animal 6): 2.67 percentage
- Radioactivity in 10 ml of blood (bile-deficient rats [1]; 7 h, mean): 2.34 percentage
- Radioactivity in 10 ml of blood (bile-deficient rats [1]; 8 h, animal 4): 1.37 percentage
- Radioactivity in 10 ml of blood (bile-deficient rats [1]; 8 h, animal 5): 3.13 percentage
- Radioactivity in 10 ml of blood (bile-deficient rats [1]; 8 h, animal 6): 2.58 percentage
- Radioactivity in 10 ml of blood (bile-deficient rats [1]; 8 h, mean): 2.36 percentage
- Radioactivity in 10 ml of blood (bile-deficient rats [1]; 10 h, animal 4): 1.29 percentage
- Radioactivity in 10 ml of blood (bile-deficient rats [1]; 10 h, animal 5): 3.26 percentage
- Radioactivity in 10 ml of blood (bile-deficient rats [1]; 10 h, animal 6): 2.67 percentage
- Radioactivity in 10 ml of blood (bile-deficient rats [1]; 10 h, mean): 2.41 percentage
- Radioactivity in 10 ml of blood (bile-deficient rats [1]; 24 h, animal 4): 1.60 percentage
- Radioactivity in 10 ml of blood (bile-deficient rats [1]; 24 h, animal 5): 4.56 percentage
- Radioactivity in 10 ml of blood (bile-deficient rats [1]; 24 h, animal 6): 4.00 percentage
- Radioactivity in 10 ml of blood (bile-deficient rats [1]; 24 h, mean): 3.39 percentage
- Blood level relative to animals treated with stearic acid only (bile-deficient rats [1]; 24th hour): 1.4 times
- 0.005 N NaOH consumed (lipase; series Bile II, glycerol trioleate, reaction time 1 hour): 0.34 mL
- 0.005 N NaOH consumed (lipase; series Bile II, glycerol trioleate, reaction time 2 hour): 0.80 mL
- 0.005 N NaOH consumed (lipase; series Bile II, glycerol trioleate, reaction time 3 hour): 1.16 mL
- 0.005 N NaOH consumed (lipase; series Bile II, glycerol trioleate, reaction time 21 hour): 1.86 mL
- 0.005 N NaOH consumed (lipase; series Bile III, glycerol triolate, reaction time 1 hour): 0.28 mL
- 0.005 N NaOH consumed (lipase; series Bile III, glycerol triolate, reaction time 2 hour): 0.68 mL
- 0.005 N NaOH consumed (lipase; series Bile III, glycerol triolate, reaction time 4 hour): 1.20 mL
- Increase of plasma triglyceride concentration (intact rats; intact rats, oil + 50 mg DIMEB, 4th hour): more than 100%
- Plasma triglyceride concentration (intact rats; Hour 1): 44 ± 6 mg/100 ml
- Plasma triglyceride concentration (intact rats; Hour 2.5): 61 ± 18 mg/100 ml
- Plasma triglyceride concentration (intact rats; Hour 4): 121 ± 7 mg/100 ml
- Plasma triglyceride concentration (intact rats; Hour 6): 122 ± 15 mg/100 ml
- Free fatty acid concentration in the plasma (intact rats; Hour 1): 326 ± 15 mg/100 ml
- Free fatty acid concentration in the plasma (intact rats; Hour 2.5): 494 ± 183 mg/100 ml
- Free fatty acid concentration in the plasma (intact rats; Hour 4): 641 ± 126 mg/100 ml
- Free fatty acid concentration in the plasma (intact rats; Hour 6): 347 ± 65 mg/100 ml
- Toxic phenomena (mice): no toxic phenomena
- Fat discharge (total lipid content of the faeces) (bile-deficient rats [2]; bile acid-deficient rats, daily 1 ml fat + 150 mg DIMEB for 5 days, faeces of first 4 days): 6.16 ± 2.37 g/100 g
- Liver triglycerides (bile-deficient rats [2]; [3]): 9.1 ± 2.2 mg/100 ml
- Plasma total lipids (bile-deficient rats [2]; [3]): 688.7 ± 95.8 mg/100 ml
- Plasma triglycerides (bile-deficient rats [2]; [3]): 71.9 ± 19.1 mg/100 ml
- Introduced fat absorbed (bile-deficient rats [2]; bile-deficient rats, daily 1 ml swine fat + 150 mg DIMEB): ~100%
